From ChEMBL document CHEMBL1136472, “3-iodo-4-phenoxypyridinones (IOPY's), a new family of highly potent non-nucleoside inhibitors of HIV-1 reverse transcriptase” (Bioorg Med Chem Lett, 2003) come the findings set out here.

Experiment [1] concerns MT4. The experiment can be described thus: Anti-HIV-1 activity against K103N strain in MT-4 cells by the MTT method. Type of experiment: functional, cell-based. The note with it: Homo sapiens.
Experiment [2] relates to MT4. Put plainly: Anti-HIV-1 activity against LAI strain in MT-4 cells by the MTT method. The class given is functional, cell-based. The note with it: Homo sapiens.
Experiment [3] deals with MT4. Put plainly: Anti-HIV-1 activity against Y181C strain, in MT-4 cells by the MTT method. Conditions: Homo sapiens. The class given is functional, cell-based.
The nature of experiment [4]: Selectivity index is the ratio of 50% cytotoxic concentration to IC50 against LAI strain in MT-4 cells by the MTT method was determined. The class given is functional, MT4.
In experiment [5] the test system is MT4. The experiment can be described thus: Anti-HIV-1 activity against […] strain was determined in MT-4 cells by the MTT method. Type of experiment: functional, cell-based. The note with it: Homo sapiens.
Experiment [6] deals with MT4. Put plainly: Anti-HIV-1 activity against K103N+[…] strain was determined in MT-4 cells by the MTT method. The class given is functional, cell-based. Conditions: Homo sapiens.
The subject of experiment [7] is MT4. The experiment can be described thus: Anti-HIV-1 activity against K103N+Y181C strain was determined in MT-4 cells by the MTT method. Type of experiment: functional, cell-based. Conditions: Homo sapiens.
In experiment [8] the test system is MT4. The experiment can be described thus: Anti-HIV-1 activity against LAI strain in MT-4 cells. The note with it: Homo sapiens. Type of experiment: functional, cell-based.
Experiment [9] has as its system MT4. The experiment can be described thus: Anti-HIV-1 activity against Y188L strain was determined in MT-4 cells by the MTT method. The class given is functional, cell-based. The note with it: Homo sapiens.

pIC50: −log10 of the molar value.

Consider `CCc1c(C)nc(O)c([N+](=O)[O-])c1Oc1cc(C)cc(C)c1`, for which the pIC50 in the experiment with MT4 [1] is 7.00; in the experiment with MT4 [2], 8.40; with MT4 [3] it was 6.80. Also, in [4], the SI is given as 2500.
Take `CCOCn1c(Cc2cc(C)cc(C)c2)c(C(C)C)c(=O)[nH]c1=O`: the pIC50 with MT4 [1] is 7.40; in the experiment with MT4 [2], 9.00; in the experiment on MT4 [3], 6.74. In addition, in experiment [4], the SI worked out at 52000.
For the molecule `CCc1c(C)nc(O)c(I)c1Oc1ccccc1`, the pIC50 with MT4 [1] is 7.40; with MT4 [2], 8.80; in the experiment on MT4 [3] it was 6.50. In addition, the SI in [4] is recorded as 63000.
Regarding `CCOCn1c(Cc2ccccc2)c(C(C)C)c(=O)[nH]c1=O` [EMIVIRINE], the results for the pIC50 in the experiment on MT4 [1], with MT4 [2] and in the experiment with MT4 [3] were 7.49, 8.10 and 7.00, respectively. The SI in experiment [4] is reported as 12500.
On to `CC(C)Nc1cccnc1N1CCN(C(=O)c2cc3cc(NS(C)(=O)=O)ccc3[nH]2)CC1` [DELAVIRDINE], for which the pIC50 with MT4 [5] is 5.72; in the experiment on MT4 [6], less than 5.00; in the experiment on MT4 [7] it was less than 5.00.
As to `O=c1[nH]c(=O)n(COCCO)c(Sc2ccccc2)c1I`, the pIC50 with MT4 [8] is 5.44.
With `O=C1Nc2ccc(Cl)cc2[C@@](C#CC2CC2)(C(F)(F)F)O1` [EFAVIRENZ], the pIC50 in the experiment on MT4 [5] was 8.70; in the experiment on MT4 [1], 7.40; in the experiment with MT4 [6] it was less than 5.00; in the experiment with MT4 [7], 7.40; in the experiment with MT4 [2], 9.00; in the experiment with MT4 [3], 7.40. In the experiment with MT4 [9], this molecule had a pIC50 of 6.70.
`CCc1c(C)[nH]c(=O)c(I)c1Oc1cc(C)cc(C)c1`: the pIC50 was 8.22 in the experiment on MT4 [5]; 8.52 in the experiment with MT4 [1]; 7.70 in the experiment with MT4 [6]; 7.40 in the experiment with MT4 [7]; 8.89 in the experiment on MT4 [2]; 7.70 with MT4 [3]. For the same molecule, in the experiment with MT4 [9], the pIC50 is 7.35. In addition, the SI in experiment [4] turned out to be 9000.
As to `CCc1c(C)nc(O)c(N(C)C)c1Oc1cc(C)cc(C)c1`, the pIC50 was 7.30 in the experiment on MT4 [1], 8.40 in the experiment with MT4 [2] and 6.80 in the experiment on MT4 [3]. In addition, in experiment [4], the SI stood at 25000.
In the experiment with MT4 [2], `CCc1c(Oc2cc(C)cc(C)c2)cc(=O)[nH]c1C` gave a pIC50 of 6.30. In addition, in [4], the SI worked out at 200.
Turning to `CCc1c(C)nc(O)c(I)c1Oc1cccc(C)c1`, the pIC50 is 7.49 in the experiment on MT4 [1], 8.80 with MT4 [2] and 7.29 with MT4 [3]. The SI in experiment [4] worked out at 19900.
As to `CCc1c(C)[nH]c(=O)c(N(C)C)c1Cc1cc(C)cc(C)c1`, the pIC50 is 7.30 with MT4 [5]; 7.49 with MT4 [1]; 6.10 in the experiment with MT4 [7]; 8.10 in the experiment on MT4 [2]; 7.00 in the experiment with MT4 [3]; 6.52 in the experiment on MT4 [9]. Moreover, the SI in experiment [4] came to 12500.
